From article PMC11912722, “Chikusetsusaponin IVa targeted YAP as an inhibitor to attenuate liver fibrosis and hepatic stellate cell activation” (Chinese Medicine, 2025)

Biological target: T1, YAP in LX-2 cells (Homo sapiens, UniProt P46937)
T1 construct: gene YAP1; endogenous full-length protein in LX-2 cells, detected by western blot (YAP antibody Cell Signaling 14074 T)
Experiment: CETSA, western blot
Format: cell-based
Settings: LX-2 cells incubated 24 h with 10 μmol/L CS-IVa, lysed, supernatant heated 45-75 °C for 3 min

T1 sequence (P46937 whole entry): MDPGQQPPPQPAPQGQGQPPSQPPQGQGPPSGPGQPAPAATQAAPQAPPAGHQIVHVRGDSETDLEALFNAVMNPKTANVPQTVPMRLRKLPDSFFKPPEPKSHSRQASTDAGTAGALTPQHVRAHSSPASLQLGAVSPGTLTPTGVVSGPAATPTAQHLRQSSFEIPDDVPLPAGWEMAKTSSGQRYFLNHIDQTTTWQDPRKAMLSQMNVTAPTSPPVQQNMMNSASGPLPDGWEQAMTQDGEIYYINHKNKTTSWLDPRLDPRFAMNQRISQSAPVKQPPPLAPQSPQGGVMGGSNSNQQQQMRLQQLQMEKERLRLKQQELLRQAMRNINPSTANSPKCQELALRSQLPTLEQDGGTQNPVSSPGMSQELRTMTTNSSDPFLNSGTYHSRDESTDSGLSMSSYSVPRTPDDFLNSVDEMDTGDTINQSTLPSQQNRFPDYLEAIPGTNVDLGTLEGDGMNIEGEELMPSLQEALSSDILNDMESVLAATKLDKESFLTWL

With `CC1(C)CC[C@]2(C(=O)O[C@@H]3O[C@H](CO)[C@@H](O)[C@H](O)[C@H]3O)CC[C@]3(C)C(=CC[C@@H]4[C@@]5(C)CC[C@H](O[C@@H]6O[C@H](C(=O)O)[C@@H](O)[C@H](O)[C@H]6O)C(C)(C)[C@@H]5CC[C@]43C)[C@@H]2C1` [CS-IVa] the “thermal stability (CETSA)” value was “treatment with CS-IVa significantly increased the thermal stability of YAP”.
